{"source": "patent US20020156115A1", "about": "“Insecticidal and acaricidal composition, and methods of using the same” (AGRO-KANESHO CO., LTD., priority 1999, published 2002)", "key": {"[1]": {"system": "two-spotted red spiders (Tetranychus telarius)", "assay": "Acaricidal effect on two-spotted red spiders, imago-killing rate, 500 ppm leaf immersion", "type": "in vivo", "settings": "female imagoes on green bean leaf, leaf immersion about 5 seconds, concentration 500 ppm, fifth day after treatment, 25° C.", "description": "Acaricidal Effect on Larvae of Two-Spotted Red Spiders (Tetranychus telarius): A stem of green bean seedling having only one primary left was placed in a test tube (capacity: 50 ml) containing water. 15 female imagoes of two-spotted red spiders were put on each leaf. One day after, the leaf having the two-spotted red spiders was immersed (about 5 seconds) in the present insecticide diluted with water, which had been prepared according to the Preparation Example, (concentration: 500 ppm, repetition: twice). They were kept in a constant-temperature room at 25° C. On the fifth day after the treatment, the female imagoes on the leaf of the green bean seedling were observed. The imago-killing rate (%) was determined on the basis of the results of the observation to obtain the results shown in Table 6."}, "[2]": {"system": "eggs of two-spotted red spiders (Tetranychus telarius)", "assay": "Acaricidal effect on eggs of two-spotted red spiders, ovicidal rate, 500 ppm spray", "type": "in vivo", "settings": "eggs on green bean leaf disc; spray 3.5 ml; concentration 500 ppm; 8 days after treatment", "description": "Acaricidal Effect on Eggs of Two-Spotted Red Spiders (Tetranychus telarius) 5 female imagoes of two-spotted red spiders were released on a green been leaf disc (diameter: 3 cm). Then, the imagoes were left to lay eggs on the leaf disc for 20 hours and then removed therefrom. The present acaricide which had been prepared according to Preparation Example 1 was diluted with water to a predetermined concentration. 3.5 ml of the preparation thus obtained was sprayed with a rotary spraying column (Mizuho Rika) over the disc (concentration: 500 ppm, repetition: twice). 8 days after the treatment, the number of unhatched eggs was counted to determine the ovicidal rate (%)."}}, "data": [{"smiles": "COC=C(C(=O)OC)c1c(OCc2ccc(Cl)cc2Cl)c(C)nn1C", "note": "[Table 2-18]", "values": [{"measurement": "Acaricidal rate (%)", "setting": "[1]", "result": 100, "unit": "%"}, {"measurement": "Ovicidal rate (%)", "setting": "[2]", "result": 100, "unit": "%"}]}, {"smiles": "CO/C=C(/C(=O)OC)c1c(OCc2cccc(Oc3ccc(Cl)c(Cl)c3)c2)c(C)nn1C", "note": "[Table 2-20]", "values": [{"measurement": "Acaricidal rate (%)", "setting": "[1]", "result": 100, "unit": "%"}, {"measurement": "Ovicidal rate (%)", "setting": "[2]", "result": 100, "unit": "%"}]}, {"smiles": "CO/C=C(/C(=O)OC)c1c(OCc2cccc(Oc3ccc(F)cc3)c2)c(C)nn1C", "note": "[Table 2-21]", "values": [{"measurement": "Acaricidal rate (%)", "setting": "[1]", "result": 100, "unit": "%"}, {"measurement": "Ovicidal rate (%)", "setting": "[2]", "result": 100, "unit": "%"}]}, {"smiles": "CO/C=C(/C(=O)OC)c1c(OCc2cc(Cl)ccc2Cl)c(C)nn1C", "note": "[Table 2-22]", "values": [{"measurement": "Acaricidal rate (%)", "setting": "[1]", "result": 100, "unit": "%"}, {"measurement": "Ovicidal rate (%)", "setting": "[2]", "result": 100, "unit": "%"}]}, {"smiles": "CO/C=C(/C(=O)OC)c1c(OCc2ccccc2C(F)(F)F)c(C)nn1C", "note": "[Table 2-23]", "values": [{"measurement": "Acaricidal rate (%)", "setting": "[1]", "result": 100, "unit": "%"}, {"measurement": "Ovicidal rate (%)", "setting": "[2]", "result": 100, "unit": "%"}]}, {"smiles": "CO/C=C(/C(=O)OC)c1c(OCc2ccc(F)cc2C(F)(F)F)c(C)nn1C", "note": "[Table 2-24]", "values": [{"measurement": "Acaricidal rate (%)", "setting": "[1]", "result": 100, "unit": "%"}, {"measurement": "Ovicidal rate (%)", "setting": "[2]", "result": 100, "unit": "%"}]}, {"smiles": "CO/C=C(/C(=O)OC)c1c(OCc2cc(C(F)(F)F)ccc2C(F)(F)F)c(C)nn1C", "note": "[Table 2-25]", "values": [{"measurement": "Acaricidal rate (%)", "setting": "[1]", "result": 100, "unit": "%"}, {"measurement": "Ovicidal rate (%)", "setting": "[2]", "result": 100, "unit": "%"}]}, {"smiles": "CO/C=C(/C(=O)OC)c1c(OCc2ccc(OC(F)(F)F)cc2)c(C(F)(F)F)nn1C", "note": "[Table 2-29]", "values": [{"measurement": "Acaricidal rate (%)", "setting": "[1]", "result": 100, "unit": "%"}, {"measurement": "Ovicidal rate (%)", "setting": "[2]", "result": 100, "unit": "%"}]}, {"smiles": "CO/C=C(/C(=O)OC)c1c(OCc2ccc(OC(F)F)cc2)c(C(F)(F)F)nn1C", "note": "[Table 2-30]", "values": [{"measurement": "Acaricidal rate (%)", "setting": "[1]", "result": 100, "unit": "%"}, {"measurement": "Ovicidal rate (%)", "setting": "[2]", "result": 100, "unit": "%"}]}, {"smiles": "CCc1nn(CC)c(/C(=C\\OC)C(=O)OC)c1OCc1nc(OC(C)C)cc(C(F)(F)F)n1", "note": "[Table 2-32]", "values": [{"measurement": "Acaricidal rate (%)", "setting": "[1]", "result": 100, "unit": "%"}, {"measurement": "Ovicidal rate (%)", "setting": "[2]", "result": 100, "unit": "%"}]}, {"smiles": "CCc1nn(CC)c(/C(=C\\OC)C(=O)OC)c1OCc1nc(Cl)cc(C(F)(F)F)n1", "note": "[Table 2-33]", "values": [{"measurement": "Acaricidal rate (%)", "setting": "[1]", "result": 100, "unit": "%"}, {"measurement": "Ovicidal rate (%)", "setting": "[2]", "result": 100, "unit": "%"}]}, {"smiles": "CO/C=C(/C(=O)OC)c1c(COc2ccc(C(F)(F)F)cc2)c(C)nn1C", "note": "[Table 3-61]", "values": [{"measurement": "Acaricidal rate (%)", "setting": "[1]", "result": 100, "unit": "%"}, {"measurement": "Ovicidal rate (%)", "setting": "[2]", "result": 100, "unit": "%"}]}, {"smiles": "CO/C=C(/C(=O)OC)c1c(COc2ccc(OC(F)(F)F)cc2)c(C)nn1C", "note": "[Table 3-63]", "values": [{"measurement": "Acaricidal rate (%)", "setting": "[1]", "result": 100, "unit": "%"}, {"measurement": "Ovicidal rate (%)", "setting": "[2]", "result": 100, "unit": "%"}]}, {"smiles": "CO/C=C(/C(=O)OC)c1c(CSc2ccc(C(F)(F)F)cc2)c(C)nn1C", "note": "[Table 3-66]", "values": [{"measurement": "Acaricidal rate (%)", "setting": "[1]", "result": 100, "unit": "%"}, {"measurement": "Ovicidal rate (%)", "setting": "[2]", "result": 100, "unit": "%"}]}, {"smiles": "CCc1nn(C)c(/C(=N\\OC)C(=O)NC)c1CON=C(C)c1ccc(OC(F)(F)F)cc1", "note": "[Table 3-75]", "values": [{"measurement": "Acaricidal rate (%)", "setting": "[1]", "result": 100, "unit": "%"}, {"measurement": "Ovicidal rate (%)", "setting": "[2]", "result": 100, "unit": "%"}]}, {"smiles": "CO/N=C(/C(=O)OC)c1c(CON=C(C)c2ccc(C(F)(F)F)cc2)c(C)nn1C", "note": "[Table 3-90]", "values": [{"measurement": "Acaricidal rate (%)", "setting": "[1]", "result": 100, "unit": "%"}, {"measurement": "Ovicidal rate (%)", "setting": "[2]", "result": 100, "unit": "%"}]}, {"smiles": "CNC(=O)C(=NOC)c1c(CON=C(C)c2ccc(C(F)(F)F)cc2)c(C)nn1C", "note": "[Table 3-92]", "values": [{"measurement": "Acaricidal rate (%)", "setting": "[1]", "result": 100, "unit": "%"}, {"measurement": "Ovicidal rate (%)", "setting": "[2]", "result": 100, "unit": "%"}]}, {"smiles": "CO/C=C(/C(=O)OC)c1c(CON=C(C)c2cccc(OC(F)F)c2)c(C)nn1C", "note": "[Table 3-102]", "values": [{"measurement": "Acaricidal rate (%)", "setting": "[1]", "result": 100, "unit": "%"}, {"measurement": "Ovicidal rate (%)", "setting": "[2]", "result": 100, "unit": "%"}]}, {"smiles": "C#CCN(C(=O)OC)c1c(OCc2ccccc2)c(C)nn1C", "note": "[Table 4-23]", "values": [{"measurement": "Acaricidal rate (%)", "setting": "[1]", "result": 100, "unit": "%"}, {"measurement": "Ovicidal rate (%)", "setting": "[2]", "result": 100, "unit": "%"}]}, {"smiles": "C#CCN(C(=O)OC)c1c(OCc2cc(Cl)ccc2Cl)c(C)nn1C", "note": "[Table 4-40]", "values": [{"measurement": "Acaricidal rate (%)", "setting": "[1]", "result": 100, "unit": "%"}, {"measurement": "Ovicidal rate (%)", "setting": "[2]", "result": 100, "unit": "%"}]}, {"smiles": "C#CCN(C(=O)OC)c1c(OCc2cccc(OCc3ccccc3)c2)c(C)nn1C", "note": "[Table 4-85]", "values": [{"measurement": "Acaricidal rate (%)", "setting": "[1]", "result": 100, "unit": "%"}, {"measurement": "Ovicidal rate (%)", "setting": "[2]", "result": 100, "unit": "%"}]}]}
